Measurements published in article doi:10.1101/2025.09.18.676322v1 (bioRxiv, 2025).
Residues, ends and D or L forms follow the SMILES beside them.

What was measured:
[1] = LogD7.4 by miniaturized shake-flask procedure; type: physicochemical; conditions: miniaturized shake-flask procedure at pH 7.4
[2] = Stability in simulated gastric fluid; type: in vitro ADME; conditions: pH 1.6
Caco-2 cell permeability = type: in vitro ADME
[3] = Stability in human plasma; type: in vitro ADME
[4] = Stability in simulated intestinal fluid; type: in vitro ADME; conditions: pH 6.5
[5] = Stability in rat liver microsomes; type: in vitro ADME
TREM2 = target: T1, TREM2 (Homo sapiens, UniProt Q9NZC2); test: Spectral shift assay of TREM2 binding; conditions: for TREM2 binding in spectral shift analysis (in words): labeled TREM2 10 nM, PBST pH 7.4, 10 min at room temperature
T1 sequence (Q9NZC2 19-174 limits assumed): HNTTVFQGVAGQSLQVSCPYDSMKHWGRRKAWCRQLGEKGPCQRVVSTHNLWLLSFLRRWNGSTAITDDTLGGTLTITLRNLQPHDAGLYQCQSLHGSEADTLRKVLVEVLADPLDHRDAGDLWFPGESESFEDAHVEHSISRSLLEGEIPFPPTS

[6] = reference compound of the assay; cited from earlier work
[7] = reference compound of the assay; cited from earlier work; remark: listed apart in the source

In the case of `CC(C)[C@@H]1NC(=O)CNC(=O)[C@H](C)NC(=O)[C@H](CO)NC(=O)[C@H](C(C)C)NC(=O)[C@H](CO)NC(=O)[C@H](C(C)C)NC(=O)[C@H](C)NC(=O)CNC(=O)[C@H](CC(=O)O)NC(=O)[C@H](CCCCN)NC(=O)[C@H](CCC(=O)O)NC(=O)[C@H]([C@@H](C)O)NC(=O)[C@H]([C@@H](C)O)NC1=O` [TP4] (cyclo(AGVTTEKDGAVSVS); ring closure inferred), the LogD7.4 [1] is reported as 1.03, the half-life [2] is reported as 0.93 h and the Papp A→B (Caco-2 cell permeability) is reported as 1.32 ×10⁻⁶ cm/s. The Papp B→A (Caco-2 cell permeability) was 2.47 ×10⁻⁶ cm/s, the remaining at 1 h [3] was 83.1% and the half-life [4] was 5.82 h. For the same compound, the half-life [5] was 3.94 h, the “TREM2 binding in spectral shift analysis (in words)” value (TREM2) was “measurable responses” and the “equilibrium dissociation constant (Kd), in words” value (TREM2; summary statement in the introduction, assay not named) was “sub-millimolar range”.
For `CC[C@H]1OC(=O)[C@H](C)[C@@H](O[C@H]2C[C@@](C)(OC)[C@@H](O)[C@H](C)O2)[C@H](C)[C@@H](O[C@@H]2O[C@H](C)C[C@H](N(C)C)[C@H]2O)[C@](C)(O)C[C@@H](C)C(=O)[C@H](C)[C@@H](O)[C@]1(C)O` [erythromycin], the “Stability in intestinal simulated fluids, t1/2” value [6] is listed as 7.55 h.
In the case of `CC(C)[N+](C)(CCOC(=O)C1c2ccccc2Oc2ccccc21)C(C)C` [propantheline], the “Human plasma stability, t1/2” value [7] is listed as 2.6 min.
With cyclo(GNSVNVETGARL) [TP1] the “TREM2 binding in spectral shift analysis (in words)” value (TREM2) was “measurable responses”.
For cyclo(GSSVNVQTGEVL) [TP2], the “TREM2 binding in spectral shift analysis (in words)” value (TREM2) was “measurable responses”.
For cyclo(LPGRLVSLPDGRHLC) [TP3], the “TREM2 binding in spectral shift analysis (in words)” value (TREM2) was “did not exhibit detectable binding”.
